Measurements reported in patent US10683288B2, “Epothilone B and dictyostatin analogs, their preparation and use” (The Trustees of Columbia University in the City of New York, priority 2015, dated 2020).
pIC50: −log10 of the molar value. Like-named read-outs stand apart in the source and are kept apart here.

What was measured:
PC3 (prostate) [1] = test: cell growth inhibition, dictyostatin analogs, PC3; format: cell-based; details: for GI50: read-out: GI50 PC3
Experimental: (§1) The C(6)- and C(12)-(4-azidobutyl) analogs 1 and 2 as well as triazole 26 and amide 27 were assayed for cell growth inhibition against four cell lines (PC3 (prostate), 1A9 (ovarian), A549 (lung), and DLD1 (colon)) alongside reference samples of synthetic dictyostatin and paclitaxel (Table 1a).

DLD1 (colon) = test: cell growth inhibition, dictyostatin analogs, DLD1; format: cell-based; details: for GI50: Homo sapiens
Experimental: as §1

A549 (lung) = test: cell growth inhibition, dictyostatin analogs, A549; format: cell-based; details: for GI50: Homo sapiens
Experimental: as §1

1A9 (ovarian) = test: cell growth inhibition, dictyostatin analogs, 1A9; format: cell-based; details: for GI50: read-out: GI50 1A9
Experimental: as §1

[2] = system: PC3 (prostate), 1A9 (ovarian), A549 (lung), and DLD1 (colon) cell lines; test: cell growth inhibition, dictyostatin analogs, summary over four cell lines; format: cell-based
Experimental: as §1

H522 (lung) = test: cell growth inhibition, Epo B analogs, H522; format: cell-based
Experimental: (§2) Compounds 19, 20 and 21 were assayed for cell growth inhibition against four cell lines (PC3 (prostate), MCF7 breast), H522 (lung), and OVCAR8 (ovarian)) alongside reference samples of Epo A, ixabepilone and taxol (Table 1).

OVCAR8 (ovarian) = test: cell growth inhibition, Epo B analogs, OVCAR8; format: cell-based
Experimental: as §2

PC3 (prostate) [3] = test: cell growth inhibition, Epo B analogs, PC3; format: cell-based; details: read-out: IC50 PC3 (Prostate)
Experimental: as §2

MCF7 (breast) = test: cell growth inhibition, Epo B analogs, MCF7; format: cell-based
Experimental: as §2

[4] = literature; cited from earlier work
[5] = Homo sapiens, NCI-H522, read-out: IC50 H522 (Lung)
[6] = Homo sapiens, OVCAR-8, read-out: IC50 OVCAR8 (Ovarian)
[7] = Homo sapiens, MCF7, read-out: IC50 MCF7 (Breast)
[8] = Homo sapiens, NCI-H522, H522 (Lung) cell line, read-out: IC50 H522 (Lung)
[9] = Homo sapiens, OVCAR-8, OVCAR8 (Ovarian) cell line, read-out: IC50 OVCAR8 (Ovarian)
[10] = Homo sapiens, MCF7 (Breast) cell line, read-out: IC50 MCF7 (Breast)

Molecule: C=C/C=C\[C@H](C)[C@@H]1OC(=O)/C=C\C=C\[C@@H](CCCCN=[N+]=[N-])[C@@H](O)C[C@H](O)/C=C\[C@H](C)[C@H](O)[C@@H](C)C[C@@H](C)CC[C@@H](O)[C@@H]1C [C(6) analog 1]
- GI50 (PC3 (prostate) [1]; Prostate cell): 1.9 nM
- GI50 (DLD1 (colon); DLD-1, read-out: GI50 DLD1): 1.1 nM
- GI50 (A549 (lung); A549, read-out: GI50 A549): 1.1 nM
- GI50 (1A9 (ovarian)): 2.2 nM
- GI50 values relative to dictyostatin ([2]; four cell lines): only slightly attenuated relative to dictyostatin

Molecule: C/C(=C\c1csc(C)n1)[C@@H]1C[C@@H]2OC2(C)CCC[C@H](C)[C@H](O)[C@@H](CCCCN=[N+]=[N-])C(=O)C(C)(C)[C@@H](O)CC(=O)O1 (stereo partly drawn) [Compound 19]
- pIC50 (H522 (lung); [5]): 9.40
- pIC50 (OVCAR8 (ovarian); [6]): 9.00
- pIC50 (PC3 (prostate) [3]; Prostate cell): 8.68
- pIC50 (MCF7 (breast); [7]): > 9.19

Molecule: CC(=O)NCCCC[C@H]1C(=O)C(C)(C)[C@@H](O)CC(=O)O[C@H](/C(C)=C/c2csc(C)n2)C[C@@H]2OC2(C)CCC[C@H](C)[C@@H]1O (stereo partly drawn) [Compound 21]
- pIC50 (H522 (lung); [5]): 9.22
- pIC50 (OVCAR8 (ovarian); [6]): 8.66
- pIC50 (PC3 (prostate) [3]; Prostate cell): 9.00
- pIC50 (MCF7 (breast); [7]): ≥ 9.19

Molecule: C/C(=C\c1csc(C)n1)[C@@H]1C[C@@H]2O[C@@H]2CCC[C@H](C)[C@H](O)[C@@H](C)C(=O)C(C)(C)[C@@H](O)CC(=O)O1 [Epo A, epothilone A]
- pIC50 (H522 (lung); H522 (Lung) cell line, read-out: IC50 H522 (Lung)): 8.26
- pIC50 (OVCAR8 (ovarian); OVCAR8 (Ovarian) cell line, read-out: IC50 OVCAR8 (Ovarian)): 8.22
- pIC50 (PC3 (prostate) [3]; PC3 (Prostate) cell line): 8.15
- pIC50 (MCF7 (breast); MCF7 (Breast) cell line, read-out: IC50 MCF7 (Breast)): 8.15

Molecule: C/C(=C\c1csc(C)n1)[C@@H]1C[C@@H]2O[C@]2(C)CCC[C@H](C)[C@H](O)[C@@H](C)C(=O)C(C)(C)[C@@H](O)CC(=O)N1 [Ixabepilone]
- pIC50 (H522 (lung); [8]): 8.60
- pIC50 (OVCAR8 (ovarian); [9]): 8.48
- pIC50 (PC3 (prostate) [3]; PC3 (Prostate) cell line): 8.40
- pIC50 (MCF7 (breast); [10]): 8.70

Molecule: CC(=O)O[C@H]1C(=O)[C@@]2(C)[C@H]([C@H](OC(=O)c3ccccc3)[C@]3(O)C[C@H](OC(=O)[C@H](O)[C@@H](NC(=O)c4ccccc4)c4ccccc4)C(C)=C1C3(C)C)[C@]1(OC(C)=O)CO[C@@H]1C[C@@H]2O [Taxol, paclitaxel, reference compound]
- GI50 (PC3 (prostate) [1]; PC3 (Prostate) cell line): 1.9 nM
- GI50 (DLD1 (colon); DLD-1, DLD1 (colon) cell line, read-out: GI50 DLD1): 15 nM
- GI50 (A549 (lung); A549 (lung) cell line, read-out: GI50 A549): 1.2 nM
- pIC50 (H522 (lung); [8]): 8.59
- GI50 (1A9 (ovarian); 1A9 (ovarian) cell line): 0.4 nM
- pIC50 (OVCAR8 (ovarian); [9]): 8.72
- pIC50 (PC3 (prostate) [3]; PC3 (Prostate) cell line): 8.22
- pIC50 (MCF7 (breast); [10]): > 9.89

Molecule: C=C/C=C\[C@H](C)[C@@H]1OC(=O)/C=C\C=C\[C@@H](CCCCNC(C)=O)[C@@H](O)C[C@H](O)/C=C\[C@H](C)[C@H](O)[C@@H](C)C[C@@H](C)CC[C@@H](O)[C@@H]1C [amide 27]
- GI50 (PC3 (prostate) [1]; Prostate cell): 50 nM
- GI50 (DLD1 (colon); DLD-1, read-out: GI50 DLD1): 32 nM
- GI50 (A549 (lung); A549, read-out: GI50 A549): 22 nM
- GI50 (1A9 (ovarian)): 30 nM
- reduction in potency relative to azide 1 ([2]; against all four cell lines): 1-2 orders of magnitude

Molecule: C=C/C=C\[C@H](C)[C@@H]1OC(=O)/C=C\C=C\[C@@H](C)[C@@H](O)C[C@H](O)/C=C\[C@H](C)[C@H](O)[C@@H](C)C[C@@H](C)CC[C@@H](O)[C@@H]1C [dictyostatin]
- GI50 (PC3 (prostate) [1]; Prostate cell): 1.3 nM
- GI50 (DLD1 (colon); DLD-1, read-out: GI50 DLD1): 0.4 nM
- GI50 (A549 (lung); A549, read-out: GI50 A549): 0.3 nM
- GI50 (1A9 (ovarian)): 0.8 nM

Molecule: C=C/C=C\[C@H](C)[C@@H]1OC(=O)/C=C\C=C\[C@@H](CCCCn2nnc3c2CC[C@@H]2[C@@H](CO)[C@@H]2CC3)[C@@H](O)C[C@H](O)/C=C\[C@H](C)[C@H](O)[C@@H](C)C[C@@H](C)CC[C@@H](O)[C@@H]1C [triazole 26]
- activity relative to azide 1 (PC3 (prostate) [1]; PC3 cell line): only slightly diminished from that of azide 1
- GI50 (PC3 (prostate) [1]; Prostate cell): 4.8 nM
- activity relative to azide 1 (DLD1 (colon); DLD1 cell line): more substantial (though not catastrophic) reductions in potency
- GI50 (DLD1 (colon); DLD-1, read-out: GI50 DLD1): 13 nM
- activity relative to azide 1 (A549 (lung); A549 cell line): more substantial (though not catastrophic) reductions in potency
- GI50 (A549 (lung); A549, read-out: GI50 A549): 25 nM
- activity relative to azide 1 (1A9 (ovarian); 1A9 cell line): only slightly diminished from that of azide 1
- GI50 (1A9 (ovarian)): 8.4 nM

Molecule: C(6)-epi dictyostatin
- potency relative to the natural product dictyostatin, in words [4]: as potent as the natural product

Molecule: C(6)-normethyl dictyostatin
- loss of potency relative to the natural product dictyostatin [4]: ≤ 1 order of magnitude
